Values of other authors, collected in patent US7361766B2, “Bicyclic heterocycles as cannabinoid receptor modulators” (Bristol-Myers Squibb Company, priority 2005, dated 2008).
Read-outs that look alike come from different tables or passages of the source.

Tests used:
[1] = chronic administration for two weeks
[2] = test system: CB-1; conditions: multiple species including humans
[3] = human subjects, 16 week trial period

Row | SMILES | body weight [1] | body weight [2] | food intake [2] | body weight [3]
1 | Cc1c(C(=O)NN2CCCCC2)nn(-c2ccc(Cl)cc2Cl)c1-c1ccc(I)cc1 [AM-251] | substantial body weight reduction |  |  | 
2 | CCCCCc1cc(O)c2c(c1)OC(C)(C)[C@@H]1CCC(C)=C[C@@H]21 [Delta-9 THC, Delta-9-tetrahydrocannabinol] |  | weight gain | increased food intake | 
3 | Cc1c(C(=O)NN2CCCCC2)nn(-c2ccc(Cl)cc2Cl)c1-c1ccc(Cl)cc1 [SR-141716] |  |  |  | dose-dependently reduced body weight
4 | CCCCC/C=C\C/C=C\C/C=C\C/C=C\CCCC(=O)NCCO [anandamide] |  | weight gain | increased food intake | 
